Several values for one entry are separate records, joined by “and”; a condition that tells them apart may be missing. Identical values can stand only once. Like-named read-outs stand apart in the source and are kept apart here.
Assays:
[1] = tested on: HeLa human cervical carcinoma cells; assay: In vitro viability study, trypan blue exclusion assay; assay type: cell-based; conditions: 0.5 mL solution added to 0.5 mL media, 15 seconds at room temperature, PBS control 86%
Method: Low passage HeLa human cervical carcinoma cells (ATCC) were maintained with Eagles minimum essential medium (MEM, Gibeo, Carlsbad, California) supplemented with 10% (vol.) fetal bovine serum, 1% (vol.) penicillin and 1% (vol.) streptomycin. Cells were passaged twice per week and maintained at 37° C. and 5% CO2. Cells were cultured in two 12-well plates and grown to 80% confluence. Immediately before the experiment, cell media was removed and 0.5 mL of fresh media was added to each well. Next, each well was treated with 0.5 mL of either ethanol (200 proof, Koptec, King of Prussia, PA), 3% (w/w) ethyl cellulose (USP, Sigma Aldrich, Rockville, MD) in ethanol or PBS (control), added directly to the media. […] Tapani, E., et al., Toxicity of ethanol in low concentrations. Experimental evaluation in cell culture. Acta Radiol, 1996. 37(6): p. 923-6. The media containing the treatment solution was then removed, each well was rinsed twice with 1 mL of PBS, and given 1 mL of fresh MEM media. After all wells had been treated, each well was rinsed one time with 1 mL of PBS, given 250 μL of […] trypsin (Gibed, Carlsbad, CA), and returned to the incubator for 5 minutes. […] Viability was then assessed with a trypan blue exclusion assay (Gibco, Carlsbad, CA and a Countess Automated Cell Counter, Invitrogen, Carlsbad, CA). […]

[2] = tested on: squamous cell carcinoma tumors in the hamster cheek pouch; assay: Injection rate- and viscosity-controlled ablation study, hamster cheek pouch model; assay type: in vivo; conditions: day 7, 50 μL injected, mean over injection rates 0.1, 1.0, 10 and 100 mL/hr
Method: Three percent ethyl cellulose (Sigma Aldrich)-ethanol solutions (weight by weight) were prepared by stirring at room temperature. Three percent was chosen as higher viscosities required a lockable needle to stay attached to the syringe at high injection rates. Two drops of blue food dye were added for every 1 mL of ethanol and ethyl cellulose-ethanol solutions to enhance contrast. 50 μL of either solution was injected at a rate of 0.1, 0.5, 1.0, 5.0, 10 or 35 mL/hr as controlled by a syringe pump (NE-300 Just Infusion Syringe Pump). Manual injections were approximately 100 mL/hr. A 1 mL syringe and 27 G needles connected with microtubing (Tygon Microtube Tubing, 0.25 mmID) were used for injections. On the outflow-end of the catheter tube a 27 G needle was snapped off the base to fit into the tubing.
Oral Surg Oral Med Oral Pathol, 1986. 61(4): p. 368-72. […] The cheek pouches were painted until tumors of at least 100 uL in volume developed, at approximately 22 weeks.
The average tumor volume was 195±140 μL and 50 μL of solution (either ethanol or 3% ethyl cellulose-ethanol) was injected. Solutions were injected with the syringe pump at 0.1, 1.0 or 10 mL/hr or injected manually. Tumor volume was measured before injections and at 1, 2 4 and 7 days following the injection. […] 36 total ablations were performed on 8 animals. […]

[3] = tested on: squamous cell carcinoma tumors in the hamster cheek pouch; conditions: for Tumors with complete response (no visible lesion): day 7, manual high-volume injection, 13 tumors ablated; for Tumor volume as % of the initial volume (normalized tumor volume): day 7, manual intratumoral injection, average 284±350 μL pure ethanol, 13 tumors
Source text: The animal study protocol was approved by the Duke University Institutional Animal Care and Use Committee. For the manual pure ethanol ablation study, a total of 6 hamsters were used. For the rate- and viscosity-controlled study, a total of 8 hamsters were used. Tumors were induced through the topical application of dimethylbenz[a]anthracene (Sigma-Aldrich). Burns, R. A., et al., Tumor-localizing and photosensitizing properties of hematoporphyrin derivative in hamster buccal pouch carcinoma. Oral Surg Oral Med Oral Pathol, 1986. 61(4): p. 368-72. Three times a week the buccal mucosa of each cheek pouch was inverted then stretched from the mouth. An area of approximately […] was painted with a cotton swab dipped in the DMBA-mineral oil solution. The cheek pouches were painted until tumors of at least 100 uL in volume developed, at approximately 22 weeks.
Tumor volumes were measured before the injection and daily for 7 days after. […] They were only performed if the tumor volume had increased for two consecutive days after the 7 day observation period. Volumes were calculated by measuring the longest axis and the orthogonal axis and using the following formula: V=4/3π*(Rlong^2)*(Rorth). Complete response is defined as the total absence of any evidence of a tumor or raised lesion by visual examination.
For cell viability analysis, a one-Way ANOVA was used followed by a Tukey-HSD. For both phantom distribution volume and in vivo normalized tumor volume analysis, a non-parametric ANOVA was used (Kruskal-Wallis) followed by a non-parametric multiple comparisons test (Dunn's test). In comparing phantom distribution volume and in vivo normalized tumor volume, the Pearson's product moment correlation coefficient was calculated. All statistical analysis was performed in R. Normalized tumor volume was calculated by dividing by the volume at a given time point by the initial volume before treatment.

For `CCO` [ethanol], the “Viability (live cell count/total cell count)” value [1] was 19%, the Normalized tumor volume [2] was 79±79% and the “Tumors with complete response (no visible lesion)” value [3] was 4 of 13. The “Tumors with complete response (no visible lesion)” value ([3]; listed as pure ethanol) was 4 and 4 out of 13 and 4/13, the “Tumor volume as % of the initial volume (normalized tumor volume)” value [3] was 30% and the “Tumor volume as % of the initial volume (normalized tumor volume)” value ([3]; listed as pure ethanol) was 30±33%.

— US12350341B2, “Methods for the treatment of cancer and benign lesions by ablation” (Duke University, priority 2017, dated 2025)
